A word on the IC50: it is the concentration that gives 50% inhibition.

These results are taken from patent US20260365682A1, “MODULATORS OF TNF-ALPHA ACTIVITY” (Forward Therapeutics, Inc., priority 2022, published 2026).

Each structure is given as a SMILES string. Where only a bound is given, the exact number is not on record here.

This assay deals with T1, TNF-α (Homo sapiens, UniProt P01375).
T1 construct: purchased R&D 210-TA-020/CF
As to the kind of experiment: TNF-α Induced HEK Blue Cellular Assay (secreted alkaline phosphatase expression, QUANTI-Blue). The format is cell-based. To be noted: HEK Blue TNFα reporter cells; TNF-α 100 μg/ml; 24 hrs at 37° C.; inhibition of secreted alkaline phosphatase; read-out: IC50 value. Summed up:
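Compound was serially diluted from […] to 0.5 nM final, then incubated with 10,000 HEK Blue TNFα reporter cells per well and […] TNF-α for 24 h at 37° C. SEAP output was read by QUANTI-Blue absorbance at 620 nm. Inhibition was background-corrected against DMSO controls with and without stimulation, and IC50 was fitted with a 4-parameter logistic equation.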

T1 sequence (P01375 77-233 limits assumed): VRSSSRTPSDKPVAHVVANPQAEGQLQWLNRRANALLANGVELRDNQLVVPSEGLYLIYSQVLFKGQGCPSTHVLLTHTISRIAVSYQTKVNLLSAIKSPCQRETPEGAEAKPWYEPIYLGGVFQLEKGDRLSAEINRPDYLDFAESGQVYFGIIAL

Regarding `[2H]C([2H])([2H])N1C(=O)c2cccc(OC(F)F)c2[C@H]2C[C@@H]1c1nc3ccc(C#CCCC(C)(C)O)cc3n12` [Example 93, (7R,14R)-1-(difluoromethoxy)-11-(5-hydroxy-5-methylhex-1-yn-1-yl)-6-(methyl-d3)-6,7-dihydro-7,14-methanobenzo[f]benzo[4,5]imidazo[1,2-a][1,4]diazocin-5(14H)-one], the IC50 was less than 100 nM.

Turning to `[2H]C([2H])([2H])N1C(=O)c2cccc(OC(F)F)c2[C@H]2C[C@@H]1c1nc3ccc(C#CCCC(C)C)cc3n12` [Example 94, (7R,14R)-1-(difluoromethoxy)-6-(methyl-d3)-11-(5-methylhex-1-yn-1-yl)-6,7-dihydro-7,14-methanobenzo[f]benzo[4,5]imidazo[1,2-a][1,4]diazocin-5(14H)-one], the IC50 is less than 100 nM.

As to `[2H]C([2H])([2H])N1C(=O)c2cccc(OC(F)F)c2[C@H]2C[C@@H]1c1nc3ccc(C#CC(=O)NC(C)C)cc3n12` [Example 95, 3-((7R,14R)-1-(difluoromethoxy)-6-(methyl-d3)-5-oxo-5,6,7,14-tetrahydro-7,14-methanobenzo[f]benzo[4,5]imidazo[1,2-a][1,4]diazocin-11-yl)-N-isopropylpropiolamide], the IC50 was less than 100 nM.

As for `[2H]C([2H])([2H])N1C(=O)c2cccc(OC(F)F)c2[C@H]2C[C@@H]1c1nc3ccc(C#CC4(C)COC4)cc3n12` [Example 96, (7R,14R)-1-(difluoromethoxy)-6-(methyl-d3)-11-((3-methyloxetan-3-yl)ethynyl)-6,7-dihydro-7,14-methanobenzo[f]benzo[4,5]imidazo[1,2-a][1,4]diazocin-5(14H)-one], the IC50 is less than 100 nM.

As to `[2H]C([2H])([2H])N1C(=O)c2cccc(OC(F)F)c2[C@H]2C[C@@H]1c1nc3ccc(C#CC4(O)CCOCC4)cc3n12` [Example 97, (7R,14R)-1-(difluoromethoxy)-11-((4-hydroxytetrahydro-2H-pyran-4-yl)ethynyl)-6-(methyl-d3)-6,7-dihydro-7,14-methanobenzo[f]benzo[4,5]imidazo[1,2-a][1,4]diazocin-5(14H)-one], the IC50 was less than 100 nM.

For `[2H]C([2H])([2H])N1C(=O)c2cccc(OC(F)F)c2[C@H]2C[C@@H]1c1nc3ccc(C#CCCCC(=O)O)cc3n12` [Example 98, 6-((7R,14R)-1-(difluoromethoxy)-6-(methyl-d3)-5-oxo-5,6,7,14-tetrahydro-7,14-methanobenzo[f]benzo[4,5]imidazo[1,2-a][1,4]diazocin-11-yl)hex-5-ynoic Acid], the IC50 was less than 100 nM.

Take `[2H]C([2H])([2H])N1C(=O)c2cccc(OC(F)F)c2[C@H]2C[C@@H]1c1nc3ccc(CCCCO)cc3n12` [Example 99, (7R,14R)-1-(difluoromethoxy)-11-(4-hydroxybutyl)-6-(methyl-d3)-6,7-dihydro-7,14-methanobenzo[f]benzo[4,5]imidazo[1,2-a][1,4]diazocin-5(14H)-one]: the IC50 was less than 100 nM.

For `[2H]C([2H])([2H])N1C(=O)c2cccc(OC(F)F)c2[C@H]2C[C@@H]1c1nc3ccc(C#Cc4cnc(P(C)(C)=O)nc4)cc3n12` [Example 100, (7R,14R)-1-(difluoromethoxy)-11-((2-(dimethylphosphoryl)pyrimidin-5-yl)ethynyl)-6-(methyl-d3)-6,7-dihydro-7,14-methanobenzo[f]benzo[4,5]imidazo[1,2-a][1,4]diazocin-5(14H)-one], the half-maximal inhibitory concentration (IC50) is less than 100 nM.

As to `[2H]C([2H])([2H])N1C(=O)c2cccc(OC(F)F)c2[C@H]2C[C@@H]1c1nc3ccc(C#CCCN4CCOCC4)cc3n12` [Example 101, (7R,14R)-1-(difluoromethoxy)-6-(methyl-d3)-11-(4-morpholinobut-1-yn-1-yl)-6,7-dihydro-7,14-methanobenzo[f]benzo[4,5]imidazo[1,2-a][1,4]diazocin-5(14H)-one], the IC50 is less than 100 nM.

Regarding `[2H]C([2H])([2H])N1C(=O)c2cccc(OC(F)F)c2[C@H]2C[C@@H]1c1nc3ccc(C#CC4CCOC4)cc3n12` (stereo partly drawn) [Example 102, (7R,14R)-1-(difluoromethoxy)-6-(methyl-d3)-11-((tetrahydrofuran-3-yl)ethynyl)-6,7-dihydro-7,14-methanobenzo[f]benzo[4,5]imidazo[1,2-a][1,4]diazocin-5(14H)-one], the IC50 was less than 100 nM.

On to `[2H]C([2H])([2H])N1C(=O)c2cccc(OC(F)F)c2[C@H]2C[C@@H]1c1nc3ccc(C#CCCOC(F)F)cc3n12` [Example 103, (7R,14R)-1-(difluoromethoxy)-11-(4-(difluoromethoxy)but-1-yn-1-yl)-6-(methyl-d3)-6,7-dihydro-7,14-methanobenzo[f]benzo[4,5]imidazo[1,2-a][1,4]diazocin-5(14H)-one], for which the IC50 was less than 100 nM.

In the case of `[2H]C([2H])([2H])N1C(=O)c2cccc(OC(F)F)c2[C@H]2C[C@@H]1c1nc3ccc(C#CCCC(=O)O)cc3n12` [Example 104, 5-((7R,14R)-1-(difluoromethoxy)-6-(methyl-d3)-5-oxo-5,6,7,14-tetrahydro-7,14-methanobenzo[f]benzo[4,5]imidazo[1,2-a][1,4]diazocin-11-yl)pent-4-ynoic Acid], the IC50 is 10000 to 30000 nM.

On to `[2H]C([2H])([2H])N1C(=O)c2cccc(OC(F)F)c2[C@H]2C[C@@H]1c1nc3ccc(C#CCC4CC4)cc3n12` [Example 105, (7R,14R)-11-(3-cyclopropylprop-1-yn-1-yl)-1-(difluoromethoxy)-6-(methyl-d3)-6,7-dihydro-7,14-methanobenzo[f]benzo[4,5]imidazo[1,2-a][1,4]diazocin-5(14H)-one], for which the IC50 was less than 100 nM.

As for `[2H]C([2H])([2H])N1C(=O)c2cccc(OC(F)F)c2[C@H]2C[C@@H]1c1nc3ccc(C#Cc4ccc(P(C)(C)=O)cc4)cc3n12` [Example 106, (7R,14R)-1-(difluoromethoxy)-11-((4-(dimethylphosphoryl)phenyl)ethynyl)-6-(methyl-d3)-6,7-dihydro-7,14-methanobenzo[f]benzo[4,5]imidazo[1,2-a][1,4]diazocin-5(14H)-one], the IC50 is less than 100 nM.

In the case of `[2H]C([2H])([2H])N1C(=O)c2cccc(OC(F)F)c2[C@H]2C[C@@H]1c1nc3ccc(C#Cc4ccc(P(C)(C)=O)s4)cc3n12` [Example 107, (7R,14R)-1-(difluoromethoxy)-11-((5-(dimethylphosphoryl)thiophen-2-yl)ethynyl)-6-(methyl-d3)-6,7-dihydro-7,14-methanobenzo[f]benzo[4,5]imidazo[1,2-a][1,4]diazocin-5(14H)-one], the IC50 is less than 100 nM.

For the compound `[2H]C([2H])([2H])N1C(=O)c2cccc(OC(F)F)c2[C@H]2C[C@@H]1c1nc3ccc(C#CCC(F)(F)F)cc3n12` [Example 108, (7R,14R)-1-(difluoromethoxy)-6-(methyl-d3)-11-(4,4,4-trifluorobut-1-yn-1-yl)-6,7-dihydro-7,14-methanobenzo[f]benzo[4,5]imidazo[1,2-a][1,4]diazocin-5(14H)-one], the IC50 was less than 100 nM.

Turning to `[2H]C([2H])([2H])N1C(=O)c2cccc(OC(F)F)c2[C@H]2C[C@@H]1c1nc3c(F)cc(C#CC)cc3n12` [Example 109, (7R,14R)-1-(difluoromethoxy)-9-fluoro-6-(methyl-d3)-11-(prop-1-yn-1-yl)-6,7-dihydro-7,14-methanobenzo[f]benzo[4,5]imidazo[1,2-a][1,4]diazocin-5(14H)-one], the IC50 fell in the range of 100 to 1000 nM.

`[2H]C([2H])([2H])N1C(=O)c2cccc(OC(F)F)c2[C@H]2C[C@@H]1c1nc3ccc(C#CC4CC(O)C4)cc3n12` (stereo partly drawn) [Example 110, (7R,14R)-1-(difluoromethoxy)-11-((3-hydroxycyclobutyl)ethynyl)-6-(methyl-d3)-6,7-dihydro-7,14-methanobenzo[f]benzo[4,5]imidazo[1,2-a][1,4]diazocin-5(14H)-one]: the IC50 was less than 100 nM.

On to `[2H]C([2H])([2H])N1C(=O)c2cccc(OC(F)F)c2[C@H]2C[C@@H]1c1nc3ccc(C#CCCO)cc3n12` [Example 111, (7R,14R)-1-(difluoromethoxy)-11-(4-hydroxybut-1-yn-1-yl)-6-(methyl-d3)-6,7-dihydro-7,14-methanobenzo[f]benzo[4,5]imidazo[1,2-a][1,4]diazocin-5(14H)-one], for which the IC50 was less than 100 nM.

Turning to `[2H]C([2H])([2H])N1C(=O)c2cccc(OC(F)F)c2[C@H]2C[C@@H]1c1nc3ccc(C#Cc4ccc(P(C)(C)=O)nc4)cc3n12` [Example 112, (7R,14R)-1-(difluoromethoxy)-11-((6-(dimethylphosphoryl)pyridin-3-yl)ethynyl)-6-(methyl-d3)-6,7-dihydro-7,14-methanobenzo[f]benzo[4,5]imidazo[1,2-a][1,4]diazocin-5(14H)-one], the IC50 is less than 100 nM.

In the case of `[2H]C([2H])([2H])N1C(=O)c2cccc(OC(F)F)c2[C@H]2C[C@@H]1c1nc3ccc(C#CC4CC(N)C4)cc3n12` (stereo partly drawn) [Example 113, (7R,14R)-11-((3-aminocyclobutyl)ethynyl)-1-(difluoromethoxy)-6-(methyl-d3)-6,7-dihydro-7,14-methanobenzo[f]benzo[4,5]imidazo[1,2-a][1,4]diazocin-5(14H)-one], the IC50 was less than 100 nM.

With `[2H]C([2H])([2H])N1C(=O)c2cccc(OC(F)F)c2[C@H]2C[C@@H]1c1nc3ccc(C#CCCCN4CCOCC4)cc3n12` [Example 114, (7R,14R)-1-(difluoromethoxy)-6-(methyl-d3)-11-(5-morpholinopent-1-yn-1-yl)-6,7-dihydro-7,14-methanobenzo[f]benzo[4,5]imidazo[1,2-a][1,4]diazocin-5(14H)-one], the IC50 was less than 100 nM.

With `[2H]C([2H])([2H])N1C(=O)c2cccc(OC(F)F)c2[C@H]2C[C@@H]1c1nc3ccc(C#CCOC4CCN(C)CC4)cc3n12` [Example 115, (7R,14R)-1-(difluoromethoxy)-6-(methyl-d3)-11-(3-((1-methylpiperidin-4-yl)oxy)prop-1-yn-1-yl)-6,7-dihydro-7,14-methanobenzo[f]benzo[4,5]imidazo[1,2-a][1,4]diazocin-5(14H)-one], the IC50 is less than 100 nM.
